Assay results published in patent US11191772B2, “Use” (DSM IP ASSETS B.V., priority 2017, dated 2021).

Columns and labels:
Experiment in all cases: Antimicrobial efficacy challenge test (in analogy to NF EN ISO11930)
Aspergillus brasiliensis = assay type: cell-based; conditions: 22° C.
Description: (§1) The antimicrobial efficacy is assessed in analogy to the regulatory challenge test method (NF EN ISO11930). Thus, a solution of Erythrulose from DSM Nutritional products in two different concentrations was prepared under sterile conditions. For this the Erythrulose was solubilized in physiological serum with 0.85 wt.-% NaCl. Phenoxyethanol was solubilized in a physiological serum with 0.85 wt.-% NaCl further comprising 5 wt.-% ethanol to ensure solubility. The solutions were deposed in 96-deep well plates (1.6 ml/well). The wells were contaminated with the respective bacterial or the fungal strains at 1.9*10^5 to 8.1*10^5 cfu/ml for the bacteria and 3.3*10^3 to 3.8*10^4 cfu/ml for the fungi to obtain the initial contamination as outlined in table 1 and 2. After contamination each well was thoroughly mixed to ensure a homogeneous distribution of the microorganism. Then each plate was incubated at 22° C. for 24 h. The counting of the (remaining) population was carried out 24 h after contamination.

Corynebacterium xerosis = assay type: cell-based; conditions: for colony counts 24 h: 22° C.
Description: as §1

Escherichia coli = assay type: cell-based; conditions: for colony counts 24 h: 22° C.
Description: as §1

Propionibacterium acnes = assay type: cell-based; conditions: for colony counts 24 h: 22° C.
Description: as §1

Pseudomonas aeruginosa = assay type: cell-based; conditions: for colony counts 24 h: 22° C.
Description: as §1

[1] = test system: Staphylococcus epidermidis; assay type: cell-based; conditions: for colony counts 24 h: 22° C.
Description: as §1

C. albicans = assay type: cell-based, Candida albicans; conditions: Erythrulose 0.4 wt.-%, 24 h after contamination, 22° C., 0 h count 19000
Description: as §1

S. aureus = assay type: cell-based, Staphylococcus aureus; conditions: Erythrulose 0.4 wt.-%, 24 h after contamination, 22° C., 0 h count 190000
Description: as §1

O=C(CO)[C@H](O)CO (racemic) [Erythrulose, erythrulose]
colony counts 24 h (Aspergillus brasiliensis; Erythrulose 0.08% active, Aspergillus brasiliensis, 24 h, t0 count 10000): 10 cfu/ml | colony counts 24 h (Aspergillus brasiliensis; Erythrulose 0.4 wt.-%, A. brasiliensis, 24 h after contamination, 0 h count 38000): 330 cfu/ml | antimicrobial activity (in words) (Corynebacterium xerosis; C. xerosis, very low concentration (table 2, 0.08%)): particularly and selectively active | colony counts 24 h (Corynebacterium xerosis; Erythrulose 0.08% active, Corynebacterium xerosis, 24 h, t0 count 250000): 55 cfu/ml | colony counts 24 h (Corynebacterium xerosis; Erythrulose 0.4 wt.-%, C. xerosis, 24 h after contamination, 0 h count 810000): 0 cfu/ml | antimicrobial activity (in words) (Escherichia coli; E. coli, very low concentration (table 2, 0.08%)): not active anymore | colony counts 24 h (Escherichia coli; Erythrulose 0.08% active, Escherichia coli, 24 h, t0 count 250000): 530000 cfu/ml | colony counts 24 h (Escherichia coli; Erythrulose 0.4 wt.-%, E. coli, 24 h after contamination, 0 h count 440000): 280000 cfu/ml | colony counts 24 h (Propionibacterium acnes; Erythrulose 0.08% active, Propionibacterium acnes, 24 h, t0 count 310000): 3300 cfu/ml | colony counts 24 h (Propionibacterium acnes; Erythrulose 0.4 wt.-%, P. Acnes, 24 h after contamination, 0 h count 500000): 55000 cfu/ml | antimicrobial activity (in words) (Propionibacterium acnes; P. acnes, very low concentration (table 2, 0.08%)): good antimicrobial activity | colony counts 24 h (Pseudomonas aeruginosa; Erythrulose 0.08% active, Pseudomonas aeruginosa, 24 h, t0 count 450000): 530000 cfu/ml | colony counts 24 h (Pseudomonas aeruginosa; Erythrulose 0.4 wt.-%, P. aeruginosa, 24 h after contamination, 0 h count 810000): 0 cfu/ml | antimicrobial activity (in words) (Pseudomonas aeruginosa; P. aeruginosa, very low concentration (table 2, 0.08%)): not active anymore | colony counts 24 h ([1]; Erythrulose 0.08% active, Staphylococcus epidermidis, 24 h, t0 count 560000): 0 cfu/ml | colony counts 24 h ([1]; Erythrulose 0.4 wt.-%, S. epidermidis, 24 h after contamination, 0 h count 500000): 0 cfu/ml | antimicrobial activity (in words) ([1]; S. epidermidis, very low concentration (table 2, 0.08%)): particularly and selectively active | colony counts 24 h (C. albicans): 78 cfu/ml | colony counts 24 h (S. aureus): 0 cfu/ml
